US7666901B2, “Analogs of 17-hydroxywortmannin as PI3K inhibitors” (Wyeth, priority 2004, dated 2010)
≈ marks a conversion by molar mass, not a printed value.

Columns and labels:
[1] = biological target: T1, Human TOR (Homo sapiens, UniProt P42345); assay: Human TOR (mTOR) kinase assay, DELFIA format; type: biochemical
T1 construct: FLAG
Procedure: The PI3K/AKT/TOR pathway is critical for cell proliferation, growth, survival, and angiogensis. Accordingly, compounds of the present invention may also be useful to inhibit TOR activity. Similar in vivo and in vitro assays to those described above with reference to PI3K can be used to determine the minimum concentration of compound sufficient to inhibit TOR. A human TOR assay and a Rat1-IGF1 assay as described in Examples 67 and 68, respectively was performed with some embodiments of the invention. The results of these assays are shown below in Tables 1 and 2.
Human TOR assays (See Toral-Barza, et al. Biochem Biophys. Res. Commun. 2005 Jun. 24; 332(1):304-10) with purified enzyme are performed in 96-well plates by DELFIA format as follows. Enzymes are first diluted in kinase assay buffer (10 mM Hepes (pH 7.4), 50 mM NaCl, 50 mM b-glycerophosphate, 10 mM MnCl2, 0.5 mM DTT, 0.25 mM microcystin LR, and […] BSA). To each well, 12 mL of the diluted enzyme is mixed briefly with 0.5 mL test inhibitor or control vehicle dimethylsulfoxide (DMSO). The kinase reaction is initiated by adding 12.5 mL kinase assay buffer containing ATP and His6-S6K to give a final reaction volume of 25 mL containing 800 ng/mL FLAG-TOR, […] ATP and […] His6-S6K. The reaction plate is incubated for 2 hours (linear at 1-6 hours) at room temperature with gentle shaking and then terminated by adding 25 mL Stop buffer (20 mM Hepes (pH 7.4), 20 mM EDTA, 20 mM EGTA). The DELFIA detection of the phosphorylated (Thr-389) His6-S6K is performed at room temperature using a monoclonal anti-P(T389)-p70S6K antibody (1A5, Cell Signaling) labeled with Europium-N1-ITC (Eu) (10.4 Eu per antibody, PerkinElmer). The DELFIA Assay buffer and Enhancement solution can be purchased from PerkinElmer. 45 mL of the terminated kinase reaction mixture is transferred to a MaxiSorp plate (Nunc) containing 55 mL PBS. The His6-S6K is allowed to attach for 2 hours after which the wells are aspirated and washed once with PBS. 100 mL of DELFIA Assay buffer with 40 ng/mL Eu-P(T389)-S6K antibody is added. The antibody binding is continued for 1 hour with gentle agitation. The wells are then aspirated and washed 4 times with PBS containing 0.05% Tween-20 (PBST). […] of DELFIA Enhancement solution is added to each well and the plates are read in a PerkinElmer Victor model plate reader. Data obtained is used to calculate enzymatic activity and enzyme inhibition by potential inhibitors.

[2] = tested on: phosphor-AKT (S473) in Rat1 cells; assay: Rat1-IGF1 assay (IGF-1 induced phospho-AKT immunoblot); type: cell-based, rat; settings: Rattus norvegicus
Procedure: Rat1 cells are plated in 6-well culture plates and serum-starved for 24 hours. Serum-starved cells are treated either with control vehicle or with various concentrations of 17-HWT for 2 hours, stimulated by IGF-1 (100 ng/mL) for 30 minutes. Total cellular lysates are prepared using NuPAGE-LDS sample buffer (Invitrogen), sonicated and then clarified by centrifugation. Equal amounts of proteins are subject to immunoblotting analysis using NuPAGE electrophoresis system and probed with phosphor-AKT (S473), total AKT antibodies (Signaling Technology).

[3] = tested on: LNCaP (human prostate carcinoma); assay: Cell proliferation (MTS) assay, LNCaP; type: cell-based; settings: Homo sapiens, LNCaP, 72 h, three days treatment
Procedure: (§1) Results of cell proliferation assays for exemplary compounds are shown below in Tables 1 and 2. Cell lines LNCaP (human prostate carcinoma), MDA468 (human breast cancer cell), MDA435 (human breast adenocarcinoma), and DU145 (human prostate carcinoma[…]) were purchased from American Type Culture Collection (ATCC) (Rockville, Md.). Cells were cultured in RPMI Medium 1640 containing 10% fetal bovine serum (FBS) in a 37° C. incubator containing 5% CO2. All cell culture reagents were purchased from Gibco-BRL (Grand Island, N.Y.). Cells were plated in 96-well culture plates at about 3000 cells per well. One day following plating, compounds or vehicle controls (buffer only) were added to cells. Proliferation assays were performed three days post initiation of treatment.
(§2) For a non-radioactive cell proliferation assay, viable cell densities are determined by measuring metabolic conversion (by viable cells) of the dye MTS tatrazolium dye, a cell proliferation assay known by one of skill in the art (MTS assay), a previously established cell proliferation assay. The assay is performed using an assay kit (Promega Corp., Madison, Wis.). The assay plates are incubated for 1-2 hours, and the results are read in a 96-well format plate reader by measuring absorbance at 490 nm. Effect of each compound is calculated as a percentage of control cell growth obtained from vehicle-treated cells grown in the same plate.

[4] = tested on: MDA468 (human breast cancer cell); assay: Cell proliferation (MTS) assay, MDA468; type: cell-based; settings: Homo sapiens, 72 h, three days treatment
Procedure: as §1, §2

[5] = tested on: MDA435 (human breast adenocarcinoma); assay: Cell proliferation (MTS) assay, MDA435; type: cell-based; settings: Homo sapiens, MDA435, 72 h, three days treatment
Procedure: as §1, §2

[6] = tested on: DU145 (human prostate carcinoma/lymphocytic leukemia); assay: Cell proliferation (MTS) assay, DU145; type: cell-based; settings: Homo sapiens, DU-145, 72 h, three days treatment
Procedure: as §1, §2

[7] = tested on: T2, PI3K; assay: Fluorescence polarization assay for PI3K; type: biochemical; settings: Table 2
T2 construct: PI3K FP IC50
Procedure: This assay is used to determine the IC50 of compounds of the present invention as it identifies inhibitors of PI3 kinase by measuring inhibition.
The assay is run by placing 5 μL of diluted enzyme per well, then 5 μL of diluted compound (or 9.5 μL enzyme then 0.5 μL compound in DMSO) is added and mixed. Then, 10 μL substrate is added to start the reaction. The samples are incubated 30-60 minutes, then the reaction is stopped by adding 20 μL stop/detector mix.
PI3K is diluted with reaction buffer (e.g., 5 μL or 7.5 μL PI3K into 620 μL reaction buffer), and 5 μL of diluted enzyme is used per well. 5 μL reaction buffer or drug diluted in buffer (e.g., 4 μL/100 so final DMSO is 1% in reaction) is added to each. The samples are mixed by pipetting up and down. Alternatively, the enzyme can be diluted to 1215 μL. In this case 9.8 μL is added per well and 0.2 μL compound is added in DMSO.
To prepare 1 mL of substrate solution, 955 μL reaction buffer, 40 μL PIP2, and 2.5 μL ATP are mixed. 10 μL of substrate is added to each well to start the reaction.
Stop/detector mix is prepared by mixing 4 μL Red detector and 1.6 μL or 2.0 μL GST-GRP with 1 mL Stop buffer, which results in 10 nM probe and 70 nM GST-GRP). 20 μL of the stop/detector mix is added to each well to stop the reaction. The plates are read after 30-90 minutes keeping the red probe solutions dark.
For the zero time point, stop/detector mix is added to the enzyme just before adding substrate. For an extra control, stop/detector mix is added to buffer (no enzyme) and substrate or to just buffer (no substrate).
The recommended reaction has 0.06 μL per 20 μL (0.015 μg/20 μL) or 0.01125 μg/15 μL or 0.75 μg/mL.
Plates are read on machines with filters for Tamra. The units are mP with no enzyme controls reading app 190-220 mP units. Fully active enzyme reduces fluorescence polarization down to 70-100 mP after 30 minutes. An active cpd raises the mP values halfway to control or to 120-150 mP units.

SMILES	IC50 ([1]; Table 1) [µM]	IC50 ([2]; Table 1) [µg/mL]	IC50 ([3]; Table 1) [µg/mL]	IC50 ([4]; Table 1) [µg/mL]	IC50 ([5]; Table 1) [µg/mL]	IC50 ([6]; Table 1) [µg/mL]	IC50 ([1]; Table 2) [µM]	IC50 ([3]; Table 2) [µg/mL]	IC50 ([4]; Table 2) [µg/mL]	IC50 ([5]; Table 2) [µg/mL]	IC50 ([6]; Table 2) [µg/mL]	IC50 [7] [µM]	IC50 ([2]; Table 2) [µg/mL]
COC[C@H]1OC(=O)/C(=C/N(C)C2CCCCC2)C2=C(O)C(=O)C3=C([C@H](OC(C)=O)C[C@@]4(C)C3CC[C@@H]4O)[C@]21C (stereo partly drawn) [Compound 9, (1E,4S,4aR,5R,6aS,7S)-1-{[cyclohexyl(methyl)amino]methylene}-7,11-dihydroxy-4-(methoxymethyl)-4a,6a-dimethyl-2,10-dioxo-1,2,4,4a,5,6,6a,7,8,9,9a,10-dodecahydroindeno[4,5-h]isochromen-5-yl acetate]	86.5	> 0.1	9.5	10	15	13	–	–	–	–	–	–	–
COC[C@H]1OC(=O)/C(=C/N2CCN(Cc3ccccc3)CC2)C2=C(O)C(=O)C3=C([C@H](OC(C)=O)C[C@@]4(C)C3CC[C@@H]4O)[C@]21C (stereo partly drawn) [Compound 10, (1E,4S,4aR,5R,6aS,7S)-1-[(4-benzylpiperazin-1-yl)methylene]-7,11-dihydroxy-4-(methoxymethyl)-4a,6a-dimethyl-2,10-dioxo-1,2,4,4a,5,6,6a,7,8,9,9a,10-dodecahydroindeno[4,5-h]isochromen-5-yl acetate]	0.89	0.02	1	1.8	> 15	15	–	–	–	–	–	–	–
COC[C@H]1OC(=O)/C(=C/N2CCCCC2)C2=C(O)C(=O)C3=C([C@H](OC(C)=O)C[C@@]4(C)C3CC[C@@H]4O)[C@]21C (stereo partly drawn) [Compound 11, (1E,4S,4aR,5R,6aS,7S)-7,11-dihydroxy-4-(methoxymethyl)-4a,6a-dimethyl-2,10-dioxo-1-(piperidin-1-ylmethylene)-1,2,4,4a,5,6,6a,7,8,9,9a,10-dodecahydroindeno[4,5-h]isochromen-5-yl acetate]	1.9	0.02	0.8	1.8	> 15	15	–	–	–	–	–	–	–
COC[C@H]1OC(=O)/C(=C/N2CCc3ccccc3C2)C2=C(O)C(=O)C3=C([C@H](OC(C)=O)C[C@@]4(C)C3CC[C@@H]4O)[C@]21C (stereo partly drawn) [Compound 12, (1E,4S,4aR,5R,6aS,7S)-1-(3,4-dihydroisoquinolin-2(1H)-ylmethylene)-7,11-dihydroxy-4-(methoxymethyl)-4a,6a-dimethyl-2,10-dioxo-1,2,4,4a,5,6,6a,7,8,9,9a,10-dodecahydroindeno[4,5-h]isochromen-5-yl acetate]	3.19	0.1	2.8	6	> 15	> 15	–	–	–	–	–	–	–
COC[C@H]1OC(=O)/C(=C/N2CCN(c3ccccc3)CC2)C2=C(O)C(=O)C3=C([C@H](OC(C)=O)C[C@@]4(C)C3CC[C@@H]4O)[C@]21C (stereo partly drawn) [Compound 13, (1E,4S,4aR,5R,6aS,7S)-7,11-dihydroxy-4-(methoxymethyl)-4a,6a-dimethyl-2,10-dioxo-1-[(4-phenylpiperazin-1-yl)methylene]-1,2,4,4a,5,6,6a,7,8,9,9a,10-dodecahydroindeno[4,5-h]isochromen-5-yl acetate]	0.607	0.05	0.8	2	> 15	15	0.776	0.33	3.5	13	17	–	–
COC[C@H]1OC(=O)/C(=C/N2CCN(C)CC2)C2=C(O)C(=O)C3=C([C@H](OC(C)=O)C[C@@]4(C)C3CC[C@@H]4O)[C@]21C (stereo partly drawn) [Compound 14, (1E,4S,4aR,5R,6aS,7S)-7,11-dihydroxy-4-(methoxymethyl)-4a,6a-dimethyl-1-[(4-methylpiperazin-1-yl)methylene]-2,10-dioxo-1,2,4,4a,5,6,6a,7,8,9,9a,10-dodecahydroindeno[4,5-h]isochromen-5-yl acetate]	0.829	0.02	0.58	2	> 15	15	–	–	–	–	–	–	–
COC[C@H]1OC(=O)/C(=C/N2CCC(c3ccccc3)CC2)C2=C(O)C(=O)C3=C([C@H](OC(C)=O)C[C@@]4(C)C3CC[C@@H]4O)[C@]21C (stereo partly drawn) [Compound 15, (1E,4S,4aR,5R,6aS,7S)-7,11-dihydroxy-4-(methoxymethyl)-4a,6a-dimethyl-2,10-dioxo-1-[(4-phenylpiperidin-1-yl)methylene]-1,2,4,4a,5,6,6a,7,8,9,9a,10-dodecahydroindeno[4,5-h]isochromen-5-yl acetate]	2.45	0.02	0.9	2.3	> 15	15	–	–	–	–	–	–	–
CCN(/C=C1/C(=O)O[C@H](COC)[C@@]2(C)C1=C(O)C(=O)C1=C2[C@H](O)C[C@]2(C)[C@@H](O)CC[C@@H]12)CC [Compound 50, (1E,4S,4aR,5R,6aS,7S,9aR)-1-[(diethylamino)methylene]-5,7,11-trihydroxy-4-(methoxymethyl)-4a,6a-dimethyl-4a,5,6,6a,7,8,9,9a-octahydroindeno[4,5-h]isochromene-2,10(1H,4H)-dione]	–	–	–	–	–	–	–	0.25 (≈ 0.542 µM)	2.5 (≈ 5.42 µM)	–	–	7.58	> 0.1
